# Measurements: US9510592B2, “Pesticidal compositions and processes related thereto” (Dow AgroSciences LLC, priority 2012, dated 2016)
# Test system: Beet Armyworm (Spodoptera exigua)
# Test: Bioassay on Beet Armyworm (BAW), 128-well diet tray assay
# Assay type: in vivo
# Conditions: percent mortality of second instar larvae, 50 μg/cm^2 on artificial diet, five to seven days, 25° C.; Table 3
# Procedure: Certain molecules disclosed in this document were tested against BAW and CEW and CL using procedures described in the following examples. In the reporting of the results, the “BAW & CEW & CL Rating Table” was used (See Table Section).
# Bioassays on BAW (Spodoptera exigua)
# Bioassays on BAW were conducted using a 128-well diet tray assay. one to five second instar BAW larvae were placed in each well (3 mL) of the diet tray that had been previously filled with 1 mL of artificial diet to which 50 μg/cm^2 of the test compound (dissolved in 50 μL of 90:10 acetone-water mixture) had been applied (to each of eight wells) and then allowed to dry. Trays were covered with a clear self-adhesive cover, and held at 25° C., 14:10 light-dark for five to seven days. Percent mortality was recorded for the larvae in each well; activity in the eight wells was then averaged. The results are indicated in the table entitled “Table 3: Assay Results” (See Table Section).
row,Structure (SMILES),BAW Rating
1,"O=C(Cn1ncc2cc(/C=C/C(c3cc(Cl)c(F)c(Cl)c3)C(F)(F)F)ccc2c1=O)NCC(F)(F)F (centres unmarked) [BC14, (E)-2-(6-(3-(3,5-Dichloro-4-fluorophenyl)-4,4,4-trifluorobut-1-en-1-yl)-1-oxophthalazin-2(1H)-yl)-N-(2,2,2-trifluoroethyl)acetamide]",A (50-100)
2,Fc1cc(/C=C/C(c2cc(Cl)cc(Cl)c2)C(F)(F)F)ccc1-n1cncn1 (centres unmarked) [DC48],A (50-100)
3,FC(F)(F)C(/C=C/c1ccc(-n2cncn2)cc1Cl)c1cc(Cl)c(Cl)c(Cl)c1 (centres unmarked) [DC66],A (50-100)
4,CC(=O)Nc1ncn(-c2ccc(/C=C/C(c3cc(Cl)cc(Cl)c3)C(F)(F)F)cc2C#N)n1 (centres unmarked) [DC39],A (50-100)
5,O=C(NCc1ccc(/C=C/C(c2cc(Cl)c(Cl)c(Cl)c2)C(F)(F)F)cc1Cl)N1CCOCC1 (centres unmarked) [CC34],A (50-100)
6,CC(C)(C)OC(=O)CNC(=O)c1ccc(/C=C/C(c2cc(Cl)c(Cl)c(Cl)c2)C(F)(F)F)cc1Br (centres unmarked) [AC58],A (50-100)
7,O=C(NC1CS(=O)(=O)C1)c1ccc(/C=C/C(c2cc(Cl)c(Cl)c(Cl)c2)C(F)(F)F)cc1Cl (centres unmarked) [AC30],A (50-100)
8,"O=C(NC1CCN(C2COC2)CC1)c1ccc(/C=C/C(c2cc(Cl)c(Cl)c(Cl)c2)C(F)(F)F)cc1Br (centres unmarked) [AC108, (E)-2-Bromo-N-(1-(oxetan-3-yl)piperidin-4-yl)-4-(4,4,4-trifluoro-3-(3,4,5-trichlorophenyl)but-1-en-1-yl)benzamide]",B (More than 0-Less than 50)
9,Cc1cc(/C=C/C(c2cc(Cl)c(Cl)c(Cl)c2)C(F)(F)F)ccc1C(=O)NCC(=O)NCC(F)(F)F (centres unmarked) [AC78],A (50-100)
10,FC(F)(F)C(/C=C/c1ccc(-n2cncn2)cc1)c1ccc(Cl)c(Cl)c1 (centres unmarked) [DC12],A (50-100)
11,COc1c(Cl)cc(C(/C=C/c2ccc(-n3cncn3)c(C#N)c2)C(F)(F)F)cc1Cl (centres unmarked) [DC34],A (50-100)
12,CCc1cc(/C=C/C(c2cc(Cl)c(F)c(Cl)c2)C(F)(F)F)ccc1C(=O)NC1CS(=O)(=O)C1 (centres unmarked) [AC86],A (50-100)
13,Cc1cc(/C=C/C(c2cc(Cl)c(F)c(Cl)c2)C(F)(F)F)ccc1C(=O)NCc1ccc(Cl)cn1 (centres unmarked) [AC53],A (50-100)
14,Cc1cc(/C=C/C(c2cc(Cl)cc(Cl)c2)C(F)(F)F)ccc1C(=O)NCc1ccc(Cl)cc1 (centres unmarked) [AC48],A (50-100)
15,O=C(NCc1ccc(Cl)nc1)c1ccc(/C=C/C(c2cc(Cl)c(Cl)c(Cl)c2)C(F)(F)F)cc1C(F)(F)F (centres unmarked) [AC36],A (50-100)
16,O=C(NC1CS(=O)(=O)C1)c1ccc(/C=C/C(c2cc(Cl)c(Cl)c(Cl)c2)C(F)(F)F)cc1C(F)(F)F (centres unmarked) [AC35],A (50-100)
17,Cc1cc(/C=C/C(c2cc(Cl)cc(Cl)c2)C(F)(F)F)cc(C#N)c1-n1cncn1 (centres unmarked) [DC44],A (50-100)
18,O=C(NCc1ccc(/C=C/C(c2cc(Cl)cc(Cl)c2)C(F)(F)F)cc1)C1CC1 (centres unmarked) [CC2],A (50-100)
19,O=C(NCc1ccc(/C=C/C(c2ccc(Cl)c(Cl)c2)C(F)(F)F)cc1Cl)C1CC1 (centres unmarked) [CC17],A (50-100)

row,Structure (SMILES),BAW Rating
1,C=CCNC(=O)CNC(=O)c1ccc(/C=C/C(c2cc(Cl)c(Cl)c(Cl)c2)C(F)(F)F)cc1Br (centres unmarked) [AC111],A (50-100)
2,O=C(NC1CS(=O)(=O)C1)c1ccc(/C=C/C(c2cc(Cl)c(F)c(Cl)c2)C(F)(F)F)cc1F (centres unmarked) [AC84],A (50-100)
3,Cc1cc(/C=C/C(c2cc(Cl)cc(Cl)c2)C(F)(F)F)ccc1-n1cncn1 (centres unmarked) [DC62],A (50-100)
4,O=C(CC(F)(F)F)NCc1ccc(/C=C/C(c2cc(Cl)cc(Cl)c2)C(F)(F)F)cc1 (centres unmarked) [CC3],A (50-100)
5,"O=C(CNC(=O)c1ccc(/C=C\C(c2cc(Cl)c(Cl)c(Cl)c2)C(F)(F)F)cc1Br)NCC(F)(F)F (centres unmarked) [AC95, (Z)-2-Bromo-N-(2-oxo-2-((2,2,2-trifluoroethyl)amino)ethyl)-4-(4,4,4-trifluoro-3-(3,4,5-trichlorophenyl)but-1-en-1-yl)benzamide]",A (50-100)
6,O=C(NCc1ccc(/C=C/C(c2cc(Cl)c(Cl)c(Cl)c2)C(F)(F)F)cc1)C1CC1 (centres unmarked) [CC5],A (50-100)
7,FC(F)(F)C(/C=C/c1ccc(-n2cncn2)c(Cl)c1)c1cc(Cl)cc(Cl)c1 (centres unmarked) [DC50],A (50-100)
8,Cc1cc(/C=C/C(c2cc(Cl)cc(Cl)c2)C(F)(F)F)ccc1C(=O)Nc1ccc(Cl)nc1 (centres unmarked) [AC59],A (50-100)
9,"FC(F)(F)C(/C=C/c1ccc(CNc2ccccn2)c(Cl)c1)c1cc(Cl)c(Cl)c(Cl)c1 (centres unmarked) [CC43, (E)-N-(2-Chloro-4-(4,4,4-trifluoro-3-(3,4,5-trichlorophenyl)but-1-en-1-yl)benzyl)pyridin-2-amine]",A (50-100)
10,"N#Cc1cc(/C=C/C(c2cc(Cl)c(Cl)c(Cl)c2)C(F)(F)F)ccc1-n1cnc(NC(=O)C2CC2)n1 (centres unmarked) [DC43, (E)-N-(1-(2-Cyano-4-(4,4,4-trifluoro-3-(3,4,5-trichlorophenyl)but-1-en-1-yl)phenyl)-1H-1,2,4-triazol-3-yl)cyclopropanecarboxamide]",A (50-100)
11,O=C(CC(F)(F)F)NCc1ccc(/C=C/C(c2ccc(Cl)c(Cl)c2)C(F)(F)F)cc1Cl (centres unmarked) [CC18],A (50-100)
12,"O=C(CNC(=O)c1ccc(/C=C/C(c2cc(Cl)c(F)c(Cl)c2)C(F)(F)F)cc1Br)NCC(F)(F)F (centres unmarked) [AC79, (E)-2-Bromo-4-(3-(3,5-dichloro-4-fluorophenyl)-4,4,4-trifluorobut-1-en-1-yl)-N-(2-oxo-2-((2,2,2-trifluoroethyl)amino)ethyl)benzamide]",A (50-100)
13,"O=C(NCC(=S)NCC(F)(F)F)c1ccc(/C=C/C(c2cc(Cl)c(Cl)c(Cl)c2)C(F)(F)F)cc1Br (centres unmarked) [AC92, (E)-2-Bromo-N-(2-thioxo-2-((2,2,2-trifluoroethyl)amino)ethyl)-4-(4,4,4-trifluoro-3-(3,4,5-trichlorophenyl)but-1-en-1-yl)benzamide]",A (50-100)
14,O=C(CC(F)(F)F)NCc1ccc(/C=C/C(c2cc(Cl)cc(Cl)c2)C(F)(F)F)cc1Cl (centres unmarked) [CC9],A (50-100)
15,Cc1cc(/C=C/C(c2cc(Cl)c(F)c(Cl)c2)C(F)(F)F)ccc1C(=O)NC1CCOCC1 (centres unmarked) [AC52],A (50-100)
16,Cc1cc(/C=C/C(c2cc(Cl)cc(Cl)c2)C(F)(F)F)ccc1C(=O)NC(C)(C)c1ccccn1 (centres unmarked) [AC16],A (50-100)
17,Cc1cc(/C=C/C(c2cc(Cl)c(F)c(Cl)c2)C(F)(F)F)ccc1C(=O)NCC(=O)NCC(F)(F)F (centres unmarked) [AC69],A (50-100)
18,O=C(CC(F)(F)F)NCc1ccc(/C=C/C(c2cc(Cl)c(Cl)c(Cl)c2)C(F)(F)F)cc1Br (centres unmarked) [CC25],A (50-100)
19,O=C(NC1CCCc2cc(/C=C/C(c3cc(Cl)c(Cl)c(Cl)c3)C(F)(F)F)ccc21)C1CC1 (centres unmarked) [BC7],A (50-100)

row,Structure (SMILES),BAW Rating
1,O=C(CC(F)(F)F)NC1CCCc2cc(/C=C/C(c3cc(Cl)c(Cl)c(Cl)c3)C(F)(F)F)ccc21 (centres unmarked) [BC5],A (50-100)
2,O=C(NCc1ccc(Cl)nc1)c1ccc(/C=C/C(c2cc(Cl)c(Cl)c(Cl)c2)C(F)(F)F)cc1Cl (centres unmarked) [AC28],A (50-100)
3,O=C(NCc1ccc(/C=C/C(c2cc(Cl)c(F)c(Cl)c2)C(F)(F)F)cc1Cl)C1CC1 (centres unmarked) [CC15],A (50-100)
4,O=C(NCc1ccc(/C=C/C(c2cc(Cl)cc(Cl)c2)C(F)(F)F)cc1Cl)C1CC1 (centres unmarked) [CC8],A (50-100)
5,O=C(NCc1ccc(/C=C/C(c2cc(Cl)cc(Cl)c2)C(F)(F)F)cc1C(F)(F)F)C1CC1 (centres unmarked) [CC21],A (50-100)
6,O=C(NCCc1ccc(Cl)nc1)c1ccc(/C=C/C(c2cc(Cl)c(Cl)c(Cl)c2)C(F)(F)F)cc1Br (centres unmarked) [AC113],B (More than 0-Less than 50)
7,"O=C(NNc1ccc(/C=C/C(c2cc(Cl)c(Cl)c(Cl)c2)C(F)(F)F)cc1)C1CC1 (centres unmarked) [CC50, (E)-N′-(4-(4,4,4-Trifluoro-3-(3,4,5-trichlorophenyl)but-1-en-1-yl)phenyl)cyclopropanecarbohydrazide]",A (50-100)
8,"O=C(NC1CCNCC1)c1ccc(/C=C/C(c2cc(Cl)c(Cl)c(Cl)c2)C(F)(F)F)cc1Br (centres unmarked) [AC114, (E)-2-Bromo-N-(piperidin-4-yl)-4-(4,4,4-trifluoro-3-(3,4,5-trichlorophenyl)but-1-en-1-yl)benzamide]",A (50-100)
9,Cc1cc(/C=C/C(c2cc(Cl)cc(Cl)c2)C(F)(F)F)ccc1C(=O)NCc1ccoc1 (centres unmarked) [AC20],A (50-100)
10,"COC(/C=C/c1ccc(-n2cncn2)cc1)(c1cc(Cl)cc(Cl)c1)C(F)(F)F (centres unmarked) [DC70, (E)-1-(4-(3-(3,5-Dichlorophenyl)-4,4,4-trifluoro-3-methoxybut-1-en-1-yl)phenyl)-1H-1,2,4-triazole]",A (50-100)
11,Cc1cc(/C=C/C(c2cc(Cl)c(Cl)c(Cl)c2)C(F)(F)F)ccc1C(=O)NC1CSC1 (centres unmarked) [AC23],A (50-100)
12,Cc1cc(/C=C/C(c2cc(Cl)cc(Cl)c2)C(F)(F)F)ccc1C(=O)NN(C)c1ccccc1F (centres unmarked) [AC45],A (50-100)
13,Cc1cc(/C=C/C(c2cc(Cl)cc(Cl)c2)C(F)(F)F)ccc1C(=O)NC1CS(=O)(=O)C1 (centres unmarked) [AC13],A (50-100)
14,Cc1cc(/C=C/C(c2cc(Cl)cc(Cl)c2)C(F)(F)F)ccc1C(=O)NCC(=O)NC1CS(=O)(=O)C1 (centres unmarked) [AC81],A (50-100)
15,O=C(NC1CS(=O)(=O)C1)c1ccc(/C=C/C(c2cc(Cl)c(Cl)c(Cl)c2)C(F)(F)F)cc1Br (centres unmarked) [AC33],A (50-100)
16,FC(F)(F)C(/C=C/c1ccc(CNC(=S)C2CC2)c(Cl)c1)c1cc(Cl)c(Cl)c(Cl)c1 (centres unmarked) [CC20],A (50-100)
17,Cc1cc(/C=C/C(c2cc(Cl)c(Cl)c(Cl)c2)C(F)(F)F)ccc1C(=O)NC(C)(C)c1ccccn1 (centres unmarked) [AC27],A (50-100)
18,O=C(CNC(=O)c1ccc(/C=C/C(c2ccc(F)c(Cl)c2)C(F)(F)F)cc1Br)NCC(F)(F)F (centres unmarked) [AC99],A (50-100)
